Laboratory results as given in patent publication US20130051651A1, “QUANTITATIVE IMAGE ANALYSIS FOR WOUND HEALING ASSAY” (PURDUE RESEARCH FOUNDATION, priority 2010, published 2013).

Test system: MCF7 cells
Test: wound healing assay analysed with the quantitative image analysis algorithm
Format: cell-based
Excerpt: The wound healing assay, or “scratch” assay, is a traditional method used to study cell proliferation and migration. […] The cultures are then imaged over time using bright field or fluorescence microscopy to monitor the growth and migration of cells into the wound as it is healing.
Illustrative embodiments of the quantitative image analysis algorithm 100 have been tested multiple times and have provided robust and dependable wound healing assay analysis. By way of example, the […] 102 of several wound healing assays were measured at 24 hour time points (up to 96 hours). […] In this experiment, the algorithm took 90 minutes to process five time points for each wound healing assay in a 96 well plate (i.e., a total of 480 bright point images 102 being analyzed). […]
Furthermore, the data produced by the quantitative image analysis algorithm 100 matches traditional wound healing assay data. […]

Substance: neuregulin 2β
- percentage of wound healing using the wound area calculated by the algorithm (MCF7 cells treated with varying doses, different time points, dose response 48 hours after wound creation (FIGS. 3A, 3B)): dose-dependent increase in healing
- healing curve (speed of wound healing) (MCF7 cells, 4 different doses, treated versus untreated cells over time (FIG. 3A)): treated cells healed faster
